Test results published in US8703424B2, “Predicting human developmental toxicity of pharmaceuticals using human stem-like cells and metabolomics” (Stemina Biomarker Discovery, Inc., priority 2010, dated 2014).

Columns and labels:
[1] = tested on: WA09 human embryonic stem (hES) cells; experiment: PLS-DA prediction of teratogenicity from secretome of treated hES cells (Example 9)
From the text: These included 11 known teratogens and 11 known non-teratogens. The current model is based on the mean fold change (treatment versus its associated intra-experimental control) of 15 metabolites common among the secretome of hES cells treated with pharmaceutical agents and unknown chemical compounds.

WA09 hES cells = experiment: Metabolomics of hES cells dosed in 96-well plates at three dose levels (Example 8); type: cell-based, human
Method: For metabolomic analysis, hES cells were dosed at the three concentrations for each chemical compound based on the cell viability data. Media controls (no cells), dosed media controls (no cells with dosed media), and controls (cells with undosed media) were also included in the experimental design (FIG. 1). Spent media was collected following a three day dosing period. The collected media was immediately quenched in acetonitrile then stored at −80° C. until later analysis.
In both the viability and metabolomics steps, 96-well plates were seeded with 250,000 cells/well of WA09 hES cells. These cells were “dosed” for three days. Each day for three days, the spent media was removed and replaced with […] media containing the designated compound. Each compound stock solution was made in DMSO and each final solution used to dose hES cells contained 0.1% DMSO. […]
Samples were analyzed in both ESI positive and ESI negative modes on an Agilent QTOF instrument, operated in high resolution, extended dynamic range mode. […]
Peak picking and feature creation were performed using the open source software library XCMS. Mass features (peaks) were detected using the centwave algorithm. […]
This filter selects against spurious low abundance features at the level of detection that are not reproducibly measured, and features that may not have peak shapes amenable to reproducible detection and/or integration. […]

[2] = DevTox pharmaceutical, high dose (H = 10x circulating dose)
[3] = DevTox pharmaceutical, low dose (L = 0.1x circulating dose)
[4] = EPA compounds, high dose level (H)
[5] = EPA compounds, low dose level (L)
[6] = EPA compounds, medium dose level (M)

CN(C)CCOC(C)(c1ccccc1)c1ccccn1 (stereo not drawn) [Doxylamine]
PLS-DA classification ([1]; 0.38 μM): not classified as a teratogen
% Non (PLS-DA class probability non-teratogen) [1, 2]: 0.38
% Ter (PLS-DA class probability teratogen) [1, 2]: 0.62
Confidence (difference between class probabilities) [1, 2]: 0.24
Prediction [1, 2]: Ter
% Non (PLS-DA class probability non-teratogen) [1, 3]: 0.58
% Ter (PLS-DA class probability teratogen) [1, 3]: 0.42
Confidence (difference between class probabilities) [1, 3]: 0.16
Prediction [1, 3]: Non
% Non (PLS-DA generated class probability) [1, 4]: 0.45
% Ter (PLS-DA generated class probability) [1, 4]: 0.55
Prediction [1, 4]: Ter
Confidence (difference between class probabilities) ([1]; EPA compounds, high dose level (H), values less than 0.1 inconclusive): 0.1
% Non (PLS-DA generated class probability) [1, 5]: 0.41
% Ter (PLS-DA generated class probability) [1, 5]: 0.59
Prediction [1, 5]: Ter
Confidence (difference between class probabilities) ([1]; EPA compounds, low dose level (L), values less than 0.1 inconclusive): 0.18
% Non (PLS-DA generated class probability) [1, 6]: 0.44
% Ter (PLS-DA generated class probability) [1, 6]: 0.56
Prediction [1, 6]: Ter
Confidence (difference between class probabilities) ([1]; EPA compounds, medium dose level (M), values less than 0.1 inconclusive): 0.12
Teratogenicity Classification ([1]; [Doxylamine] 0.038 μm, devTox low): Non
Teratogenicity Classification ([1]; [Doxylamine] 0.38 μm, devTox medium): Non
Teratogenicity Classification ([1]; [Doxylamine] 1 μm, EPA low): Ter
Teratogenicity Classification ([1]; [Doxylamine] 3.8 μm, devTox high): Ter
Teratogenicity Classification ([1]; [Doxylamine] 10 μm, EPA medium): Ter
Teratogenicity Classification ([1]; [Doxylamine] 100 μm, EPA high): Ter
PLS-DA classification, these studies (EPA set) ([1]; all three concentrations (low, medium, and high)): teratogen
PLS-DA classification, developmental toxicity assay (Table 11) ([1]; high concentration): teratogen
PLS-DA classification, developmental toxicity assay (Table 11) ([1]; low and medium dose): non-teratogen
PLS-DA classification of EPA-provided chemical agents ([1]; overall conclusion): potential teratogens
Dimethylarginine (DMA) change (WA09 hES cells; at least two dose levels): increased secretion
Malic acid change (WA09 hES cells; high dose levels): extreme fold changes
